The values that follow come from ChEMBL document CHEMBL1153189, “The comparative antimalarial properties of weak base and neutral synthetic ozonides” (Bioorg Med Chem Lett, 2010).

Data set [1] concerns Plasmodium berghei. Kind of data set: Antimalarial activity against Plasmodium berghei infected in NMRI mice (Mus musculus) assessed as reduction in parasitaemia at 10 mg/kg, perorally administered 1 day post infection. In kind it is functional. Further details: scale not given: the % may be the effect or the level left; call rule not given here. As to conditions: route oral.
Data set [2] has as its system Plasmodium falciparum. Kind of data set: Antimalarial activity against chloroquine-resistant Plasmodium falciparum K1. In kind it is functional, organism-based.
In data set [3] the test system is Rattus norvegicus. The data set is described as follows: Plasma concentration in rat at 300 mg/kg, po after 5 days. In kind it is ADME, organism-based. Further details: dose 300 mg/kg, route oral. To be noted: in vivo, 120 h.
For data set [4], the system named is Plasmodium berghei. The data set is described as follows: Antimalarial activity against Plasmodium berghei infected in NMRI mice (Mus musculus) assessed as reduction in parasitaemia at 3 mg/kg, perorally administered for 3 days post infection. In kind it is functional. Further details: scale not given: the % may be the effect or the level left. As to conditions: route oral.

The test system of data set [5] is Plasmodium falciparum. Kind of data set: Antimalarial activity against chloroquine-sensitive Plasmodium falciparum NF54. In kind it is functional, organism-based.
The subject of data set [6] is Plasmodium berghei. Kind of data set: Antimalarial activity against Plasmodium berghei infected in NMRI mice (Mus musculus) assessed as survival time at 3 mg/kg, perorally administered for 3 days post infection. In kind it is functional. To be noted: route oral.
Data set [7] deals with Cytochrome P450 2D6 (Homo sapiens, UniProt P10635). The data set is described as follows: Inhibition of CYP2D6 up to 50 uM. In kind it is ADME.
Chain of Cytochrome P450 2D6 (P10635 whole entry): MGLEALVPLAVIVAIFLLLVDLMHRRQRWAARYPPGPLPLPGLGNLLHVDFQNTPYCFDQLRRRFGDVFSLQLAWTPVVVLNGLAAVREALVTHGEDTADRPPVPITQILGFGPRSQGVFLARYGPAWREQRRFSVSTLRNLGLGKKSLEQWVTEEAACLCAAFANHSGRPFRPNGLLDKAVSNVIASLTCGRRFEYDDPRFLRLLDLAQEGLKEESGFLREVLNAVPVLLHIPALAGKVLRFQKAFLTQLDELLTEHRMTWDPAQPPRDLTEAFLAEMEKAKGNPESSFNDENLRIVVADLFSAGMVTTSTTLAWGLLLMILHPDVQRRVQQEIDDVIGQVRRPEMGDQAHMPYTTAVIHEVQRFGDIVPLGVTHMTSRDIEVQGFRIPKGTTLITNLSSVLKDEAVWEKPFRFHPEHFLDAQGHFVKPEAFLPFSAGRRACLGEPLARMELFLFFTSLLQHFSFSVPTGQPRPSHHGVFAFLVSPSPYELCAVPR
Data set [8] can be described thus: Plasma concentration in rat at 100 mg/kg, po after 5 days. Further details: dose 100 mg/kg, route oral. In kind it is ADME, organism-based.
Data set [9] has as its target Cytochrome P450 2C9 (Homo sapiens, UniProt P11712). The data set is described as follows: Inhibition of CYP2C9 up to 50 uM. In kind it is ADME.
The target in data set [10] is Cytochrome P450 3A4 (Homo sapiens, UniProt P08684). The data set is described as follows: Inhibition of CYP3A4 up to 50 uM. In kind it is ADME.
Chain of Cytochrome P450 3A4 (P08684 whole entry): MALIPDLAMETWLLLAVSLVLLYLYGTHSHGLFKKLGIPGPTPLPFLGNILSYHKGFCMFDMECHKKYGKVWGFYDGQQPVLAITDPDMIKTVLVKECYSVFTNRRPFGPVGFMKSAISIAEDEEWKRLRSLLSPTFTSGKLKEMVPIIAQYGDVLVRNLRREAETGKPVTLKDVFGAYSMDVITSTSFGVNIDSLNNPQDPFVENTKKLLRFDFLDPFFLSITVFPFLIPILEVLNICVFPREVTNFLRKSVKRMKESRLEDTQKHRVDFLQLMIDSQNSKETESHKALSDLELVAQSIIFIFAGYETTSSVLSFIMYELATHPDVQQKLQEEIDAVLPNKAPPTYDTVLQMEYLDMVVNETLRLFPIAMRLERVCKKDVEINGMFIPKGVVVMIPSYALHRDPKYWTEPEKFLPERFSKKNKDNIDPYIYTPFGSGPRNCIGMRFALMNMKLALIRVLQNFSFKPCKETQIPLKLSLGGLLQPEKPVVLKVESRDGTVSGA
Data set [11] has as its system Plasmodium berghei. The data set is described as follows: Antimalarial activity against Plasmodium berghei infected in NMRI mice (Mus musculus) assessed as cure rat at 3 mg/kg, perorally administered for 3 days post infection measured after 30 days. In kind it is functional. To be noted: route oral.

Where only a bound is given, the exact number is not on record here.

Chain of Cytochrome P450 2C9 (P11712 whole entry): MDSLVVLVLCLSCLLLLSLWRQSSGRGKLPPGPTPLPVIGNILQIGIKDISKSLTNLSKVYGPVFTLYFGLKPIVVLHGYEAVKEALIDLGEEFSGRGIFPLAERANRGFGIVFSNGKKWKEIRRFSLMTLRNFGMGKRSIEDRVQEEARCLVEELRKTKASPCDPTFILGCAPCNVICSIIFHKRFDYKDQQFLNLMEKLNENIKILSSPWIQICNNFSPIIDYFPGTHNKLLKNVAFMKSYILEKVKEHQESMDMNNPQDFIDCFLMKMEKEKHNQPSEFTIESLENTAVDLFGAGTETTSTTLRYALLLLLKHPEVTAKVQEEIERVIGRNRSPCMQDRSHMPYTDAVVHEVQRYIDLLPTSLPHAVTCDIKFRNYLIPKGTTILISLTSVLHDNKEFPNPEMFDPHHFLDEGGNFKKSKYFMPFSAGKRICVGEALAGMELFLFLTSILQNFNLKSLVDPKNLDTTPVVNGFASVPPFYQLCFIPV

As a reminder, the IC50 is the concentration that gives 50% inhibition. For the compound `Cc1ccc(S(=O)(=O)O)cc1.N[C@H]1CC[C@H](NC(=O)C(=O)NC[C@H]2CC[C@]3(CC2)OO[C@]2(O3)C3CC4CC(C3)CC2C4)CC1`, the Activity in [1] is recorded as 99.9%; in data set [4] it was greater than 99.9%; in data set [7], “Not Active”; in data set [9], “Not Active”; in data set [10], “Not Active”; in data set [11], 40%. In addition, the IC50 turned out to be 0.7 ng/mL in data set [2] and 1.3 ng/mL in [5]. In data set [3], this compound displayed a Cp of 100 mg/kg. For the same compound, the Survival in data set [6] is 25.2 days. Also, the concentration at 120 h in data set [8] came out at 3700 ng/mL.
